Measured values reported in the supplement of paper PMC5908809.

Tests used:
NK-YS (IL-2 2.5 ng/mL) [1] = experiment: percent inhibition of viability; higher = more inhibition; conditions: 72 h
DERL-7 (IL-2 2.5 ng/mL) [2] = experiment: as above; conditions: 72 h
[3] = tested on: normal primary NK cells, pool 1 (3 donors), resting (IL-2 0 ng/mL); experiment: as above; conditions: 72 h
KAI3 (IL-2 2.5 ng/mL) [4] = experiment: as above; conditions: 72 h
NKL (IL-2 2.5 ng/mL) [5] = experiment: as above; conditions: 72 h
NK-92 (IL-2 2.5 ng/mL) [6] = experiment: as above; conditions: 72 h
YT (IL-2 2.5 ng/mL) [7] = experiment: as above; conditions: 72 h
[8] = tested on: normal primary NK cells, pool 2 (3 donors) (IL-2 2.5 ng/mL); experiment: as above; conditions: 72 h
SNK-6 (IL-2 2.5 ng/mL) [9] = experiment: as above; conditions: 72 h
[10] = tested on: normal primary NK cells, pool 3 (3 donors) (IL-2 2.5 ng/mL); experiment: as above; conditions: 72 h
IMC-1 (IL-2 20 ng/mL) [11] = experiment: as above; conditions: 72 h
[12] = tested on: normal primary NK cells, pool 1 (3 donors) (IL-2 2.5 ng/mL); experiment: as above; conditions: 72 h
KHYG-1 (IL-2 2.5 ng/mL) [13] = experiment: as above; conditions: 72 h
[14] = tested on: normal NK cells expanded with K562-aAPC; experiment: drug sensitivity score (DSS) (DSS units); higher = more sensitive; extreme values may be limits of the assay; conditions: 72 h; IL-2 2.5 ng/mL
Protocol: (§1)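 Drug sensitivity and resistance testing on K562-aAPC-expanded normal NK cells: 5 concentrations (10-fold steps over a 10,000-fold range), 72 h at 37 °C, viability by CellTiter-Glo normalised to DMSO and benzethonium chloride controls; DSS from the fitted curve.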

[15] = tested on: normal NK cells expanded with K562-aAPC; experiment: percent inhibition of viability; higher = more inhibition; conditions: 72 h, IL-2 2.5 ng/mL
Protocol: as §1

NK-YS (IL-2 2.5 ng/mL) [16] = experiment: drug sensitivity score (DSS) (DSS units); higher = more sensitive; extreme values may be limits of the assay; conditions: 72 h
DERL-7 (IL-2 2.5 ng/mL) [17] = experiment: as above; conditions: 72 h
[18] = tested on: normal primary NK cells, pool 1 (3 donors), resting (IL-2 0 ng/mL); experiment: as above; conditions: 72 h
KAI3 (IL-2 2.5 ng/mL) [19] = experiment: as above; conditions: 72 h
NKL (IL-2 2.5 ng/mL) [20] = experiment: as above; conditions: 72 h
NK-92 (IL-2 2.5 ng/mL) [21] = experiment: as above; conditions: 72 h
YT (IL-2 2.5 ng/mL) [22] = experiment: as above; conditions: 72 h
[23] = tested on: normal primary NK cells, pool 2 (3 donors) (IL-2 2.5 ng/mL); experiment: as above; conditions: 72 h
SNK-6 (IL-2 2.5 ng/mL) [24] = experiment: as above; conditions: 72 h
[25] = tested on: normal primary NK cells, pool 3 (3 donors) (IL-2 2.5 ng/mL); experiment: as above; conditions: 72 h
IMC-1 (IL-2 20 ng/mL) [26] = experiment: as above; conditions: 72 h
[27] = tested on: normal primary NK cells, pool 1 (3 donors) (IL-2 2.5 ng/mL); experiment: as above; conditions: 72 h
KHYG-1 (IL-2 2.5 ng/mL) [28] = experiment: as above; conditions: 72 h

CCC/C=C/C=C/C(=O)O[C@H]1/C(=C/C(=O)OC)C[C@H]2C[C@H]([C@@H](C)O)OC(=O)C[C@H](O)C[C@@H]3C[C@H](OC(C)=O)C(C)(C)[C@](O)(C[C@@H]4C/C(=C/C(=O)OC)C[C@H](/C=C/C(C)(C)[C@]1(O)O2)O4)O3 [Bryostatin 1] (max concentration tested 100 nM)
percent inhibition of viability [%]
Conditions	0.01 nM	0.1 nM	1 nM	10 nM	100 nM
DERL-7 (IL-2 2.5 ng/mL) [2]	-2.14	-19.4	24.4	20	35.2
IMC-1 (IL-2 20 ng/mL) [11]	-3.95	3.27	75.6	68.3	62.7
KAI3 (IL-2 2.5 ng/mL) [4]	0.24	5.23	4.64	21.7	-6.8
KHYG-1 (IL-2 2.5 ng/mL) [13]	1.17	35.4	102	106	99.2
NK-92 (IL-2 2.5 ng/mL) [6]	-10.7	25.5	87.5	103	95.4
NK-YS (IL-2 2.5 ng/mL) [1]	-5.4	-9.97	-7.91	1.59	-4.21
NKL (IL-2 2.5 ng/mL) [5]	-18.8	-58.9	-74.9	-67.5	-81.5
SNK-6 (IL-2 2.5 ng/mL) [9]	13.4	39.5	64.4	35.5	18
YT (IL-2 2.5 ng/mL) [7]	2.73	-2.33	-3.22	1.88	1.24
[3]	-14.3	14.4	-0.07	-6.68	5.47
[8]	-15.1	-25.1	-48.2	-38	-37.6
[10]	-5.42	-30.1	-40.2	-35	-20.7
[12]	-10.4	-18.6	-14.9	-23.1	-10.7
[15]	-6.34	-41.9	-55.2	-31.9	-30.3

Conditions	drug sensitivity score
DERL-7 (IL-2 2.5 ng/mL) [17]	8.96
IMC-1 (IL-2 20 ng/mL) [26]	23.9
KAI3 (IL-2 2.5 ng/mL) [19]	0
KHYG-1 (IL-2 2.5 ng/mL) [28]	35.4
NK-92 (IL-2 2.5 ng/mL) [21]	31.7
NK-YS (IL-2 2.5 ng/mL) [16]	0
NKL (IL-2 2.5 ng/mL) [20]	0
SNK-6 (IL-2 2.5 ng/mL) [24]	14.9
YT (IL-2 2.5 ng/mL) [22]	0
[14]	0
[18]	0
[23]	0
[25]	0
[27]	0

CC(=O)[C@]1(O)Cc2c(O)c3c(c(O)c2[C@@H](O[C@H]2C[C@H](N)[C@H](O)[C@H](C)O2)C1)C(=O)c1ccccc1C3=O [Idarubicin] (max concentration tested 1000 nM)
percent inhibition of viability [%]
Conditions	0.1 nM	1 nM	10 nM	100 nM	1000 nM
DERL-7 (IL-2 2.5 ng/mL) [2]	5.69	7.69	65.2	100	101
IMC-1 (IL-2 20 ng/mL) [11]	-7.47	-4.02	65.8	101	101
KAI3 (IL-2 2.5 ng/mL) [4]	12.1	20.2	75.2	88.7	108
KHYG-1 (IL-2 2.5 ng/mL) [13]	-9.43	1.7	74.3	108	110
NK-92 (IL-2 2.5 ng/mL) [6]	0.18	7.35	69.9	108	109
NK-YS (IL-2 2.5 ng/mL) [1]	-9.65	-1.39	71.5	80.4	107
NKL (IL-2 2.5 ng/mL) [5]	5.06	19.9	101	107	110
SNK-6 (IL-2 2.5 ng/mL) [9]	-5.01	-15.7	84.5	96.8	94.4
YT (IL-2 2.5 ng/mL) [7]	-10.7	-9.01	-4.8	100	110
[3]	11	17.1	73.4	91.3	94
[8]	6.51	-1.19	51.6	94.8	97.9
[10]	4.34	4.31	46.5	98	100
[12]	-4.61	-3.53	21.8	96.4	98.4
[15]	1.32	-3	56.3	97.4	101

Conditions	drug sensitivity score
DERL-7 (IL-2 2.5 ng/mL) [17]	26.1
IMC-1 (IL-2 20 ng/mL) [26]	25.6
KAI3 (IL-2 2.5 ng/mL) [19]	28.5
KHYG-1 (IL-2 2.5 ng/mL) [28]	26.5
NK-92 (IL-2 2.5 ng/mL) [21]	26.8
NK-YS (IL-2 2.5 ng/mL) [16]	26.4
NKL (IL-2 2.5 ng/mL) [20]	33.7
SNK-6 (IL-2 2.5 ng/mL) [24]	27.1
YT (IL-2 2.5 ng/mL) [22]	17.6
[14]	24.8
[18]	27.5
[23]	23.9
[25]	23.2
[27]	20.9

Cc1nc(Nc2ncc(C(=O)Nc3c(C)cccc3Cl)s2)cc(N2CCN(CCO)CC2)n1 [Dasatinib] (max concentration tested 1000 nM)
percent inhibition of viability [%]
Conditions	0.1 nM	1 nM	10 nM	100 nM	1000 nM
DERL-7 (IL-2 2.5 ng/mL) [2]	2.24	8.32	14.1	5.36	23.2
IMC-1 (IL-2 20 ng/mL) [11]	-4.24	-3.41	-7.41	-6.36	8.01
KAI3 (IL-2 2.5 ng/mL) [4]	-0.36	1.21	4.62	14.5	34
KHYG-1 (IL-2 2.5 ng/mL) [13]	-4.78	-5.41	2.42	4.68	15
NK-92 (IL-2 2.5 ng/mL) [6]	-15.2	-20	-16.4	-1	22.6
NK-YS (IL-2 2.5 ng/mL) [1]	-0.77	-3.69	1.85	9.09	26.2
NKL (IL-2 2.5 ng/mL) [5]	-6.62	-1.79	12	30.8	50.2
SNK-6 (IL-2 2.5 ng/mL) [9]	26.1	-6.71	-10.2	3.42	33.2
YT (IL-2 2.5 ng/mL) [7]	-6.9	-3.71	0.56	23	39.6
[3]	-8.65	23.5	15.4	12.1	3.61
[8]	-3.84	18.3	1.6	0.44	6.62
[10]	0.39	14.8	-5.88	-19.1	-19.4
[12]	-0.11	19.3	13.1	15.4	19.5
[15]	-0.95	4.04	19.2	3.69	18.7

Conditions	drug sensitivity score
DERL-7 (IL-2 2.5 ng/mL) [17]	1.68
IMC-1 (IL-2 20 ng/mL) [26]	0
KAI3 (IL-2 2.5 ng/mL) [19]	2.92
KHYG-1 (IL-2 2.5 ng/mL) [28]	0.45
NK-92 (IL-2 2.5 ng/mL) [21]	0.7
NK-YS (IL-2 2.5 ng/mL) [16]	2.02
NKL (IL-2 2.5 ng/mL) [20]	6.85
SNK-6 (IL-2 2.5 ng/mL) [24]	2.07
YT (IL-2 2.5 ng/mL) [22]	4.71
[14]	1.3
[18]	0
[23]	0
[25]	0
[27]	6.61

COc1ccc(-c2cc3c(C)nc(N)nc3n([C@H]3CC[C@H](OCCO)CC3)c2=O)cn1 (max concentration tested 10000 nM)
percent inhibition of viability [%]
Conditions	1 nM	10 nM	100 nM	1000 nM	10000 nM
DERL-7 (IL-2 2.5 ng/mL) [2]	2.23	21.8	69.6	92	99.9
IMC-1 (IL-2 20 ng/mL) [11]	-2.45	-13.7	-14.2	-15.4	64.2
KAI3 (IL-2 2.5 ng/mL) [4]	1.74	8.43	34.4	63.8	82.1
KHYG-1 (IL-2 2.5 ng/mL) [13]	2.41	2.54	15.7	68.3	103
NK-92 (IL-2 2.5 ng/mL) [6]	16.6	20.7	49.1	75.7	97.2
NK-YS (IL-2 2.5 ng/mL) [1]	1.08	-1.02	20.1	62.4	85
NKL (IL-2 2.5 ng/mL) [5]	-11.1	4.69	32.7	66.2	93.9
SNK-6 (IL-2 2.5 ng/mL) [9]	-16.2	-10.9	2.3	30.8	65.3
YT (IL-2 2.5 ng/mL) [7]	8.27	10.8	38.5	76.5	86.5
[3]	19.4	14.7	33.7	39	98.8
[8]	-0.57	7.93	21.5	39.9	96.6
[10]	5.05	8.38	19.9	31.5	96.7
[12]	-2.26	7.17	28.9	35.8	99.4
[15]	-6.01	3.97	27.8	42.7	60.2

Conditions	drug sensitivity score
DERL-7 (IL-2 2.5 ng/mL) [17]	27.6
IMC-1 (IL-2 20 ng/mL) [26]	2.72
KAI3 (IL-2 2.5 ng/mL) [19]	16.5
KHYG-1 (IL-2 2.5 ng/mL) [28]	15
NK-92 (IL-2 2.5 ng/mL) [21]	22.4
NK-YS (IL-2 2.5 ng/mL) [16]	14.1
NKL (IL-2 2.5 ng/mL) [20]	16.6
SNK-6 (IL-2 2.5 ng/mL) [24]	7.29
YT (IL-2 2.5 ng/mL) [22]	19.1
[14]	11.5
[18]	14.5
[23]	11
[25]	8.86
[27]	11.4
